Active and inactive are the calls of the source. The calls are words filed in the database; no cut-off is given here.

We go through three compounds from ChEMBL document CHEMBL3046343, “Responses of the cabbage seedpod weevil, Ceutorhynchus obstrictus (Marsham) (Coleoptera: Curculionidae), to seed treatments of canola (Brassica napus L.) with the neonicotinoid compounds clothianidin and imidacloprid” (2009).

For assay [1], the system named is Ceutorhynchus obstrictus. As to the kind of experiment: Inhibition of emergence of new-generation Ceutorhynchus obstrictus adults from soil harboring Brassica napus L. Ryder plant developed from compound treated seeds at 600 g/L FS measured for 5 weeks relative to lindane. It counts as functional.
Assay [2] has as its system Ceutorhynchus obstrictus. Nature of the assay: Inhibition of Ceutorhynchus obstrictus preimaginal development in Brassica napus L. Ryder pods of plant developed from compound treated seeds assessed as decrease in number of exit holes formed per pod by third-instar larvae at 600 g/L FS. The format is functional, organism-based.
The subject of the next assay is Contarinia nasturtii. As to the kind of experiment: Inhibition of Contarinia nasturtii larval development in Brassica oleracea L. var italica plant developed from compound pretreated seeds at 4.5 g AI per 100 g seed measured at 4-5 weeks after planting. It counts as functional. On the set-up: scale not given: the % may be the effect or the level left.
Assay [3] relates to Ceutorhynchus obstrictus. Nature of the assay: Inhibition of Ceutorhynchus obstrictus preimaginal development in Brassica napus L. Ryder pods of plant developed from compound treated seeds assessed as decrease in number of third-instar larvae at 600 g/L FS by microscopic analysis. It counts as functional, organism-based.
Assay [4] concerns Ceutorhynchus obstrictus. As to the kind of experiment: Inhibition of Ceutorhynchus obstrictus preimaginal development in Brassica napus L. Ryder pods of plant developed from compound treated seeds assessed as decrease in number of second-instar larvae at 600 g/L FS by microscopic analysis. It counts as functional, organism-based.
In assay [5] the test system is Ceutorhynchus obstrictus. Nature of the assay: Inhibition of Ceutorhynchus obstrictus preimaginal development in Brassica napus L. Ryder pods of plant developed from compound treated seeds assessed as effect on number of first-instar larvae at 600 g/L FS by microscopic analysis. The format is functional, organism-based.
The subject of assay [6] is Ceutorhynchus obstrictus. Nature of the assay: Effect on Ceutorhynchus obstrictus oviposition in Brassica napus L. Ryder pods of plant developed from compound treated seeds assessed as number of eggs deposited at 600 g/L FS by microscopic analysis. It counts as functional, organism-based.
The subject of assay [7] is Ceutorhynchus obstrictus. As to the kind of experiment: Inhibition of Ceutorhynchus obstrictus development in canola pods of plant developed from compound treated seeds assessed as decrease in number of exit holes formed by larvae at 0.30 kg AI per 45.36 kg seeds. It counts as functional.
Assay [8] concerns Ceutorhynchus obstrictus. Nature of the assay: Inhibition of Ceutorhynchus obstrictus development in canola pods of plant developed from compound treated seeds assessed as decrease in number of exit holes formed by larvae at 0.23 kg AI per 45.36 kg seeds. The format is functional.
For assay [9], the system named is Ceutorhynchus obstrictus. As to the kind of experiment: Inhibition of emergence of new-generation Ceutorhynchus obstrictus adults from soil harboring Brassica napus L. Ryder plant developed from compound treated seeds at 800 g/L FS measured for 5 weeks relative to lindane. The format is functional.
Assay [10] has as its system Ceutorhynchus obstrictus. As to the kind of experiment: Inhibition of Ceutorhynchus obstrictus preimaginal development in Brassica napus L. Ryder pods of plant developed from compound treated seeds assessed as decrease in number of exit holes formed per pod by larvae at 800 g/L FS. The format is functional, organism-based.
The subject of assay [11] is Ceutorhynchus obstrictus. As to the kind of experiment: Inhibition of Ceutorhynchus obstrictus preimaginal development in Brassica napus L. Ryder pods of plant developed from compound treated seeds assessed as decrease in number of third-instar larvae at 800 g/L FS by microscopic analysis. It counts as functional, organism-based.
In assay [12] the test system is Ceutorhynchus obstrictus. Nature of the assay: Inhibition of Ceutorhynchus obstrictus preimaginal development in Brassica napus L. Ryder pods of plant developed from compound treated seeds assessed as decrease in number of second-instar larvae at 800 g/L FS by microscopic analysis. It counts as functional, organism-based.
Assay [13] has as its system Ceutorhynchus obstrictus. As to the kind of experiment: Inhibition of Ceutorhynchus obstrictus preimaginal development in Brassica napus L. Ryder pods of plant developed from compound treated seeds assessed as effect on number of first-instar larvae at 800 g/L FS by microscopic analysis. It counts as functional, organism-based.
For assay [14], the system named is Ceutorhynchus obstrictus. As to the kind of experiment: Effect on Ceutorhynchus obstrictus oviposition in Brassica napus L. Ryder pods of plant developed from compound treated seeds assessed as number of eggs deposited at 800 g/L FS by microscopic analysis. It counts as functional, organism-based.
For assay [15], the system named is Ceutorhynchus obstrictus. Nature of the assay: Inhibition of Ceutorhynchus obstrictus development in canola pods of plant developed from compound treated seeds assessed as decrease in number of exit holes formed by larvae at 0.28 kg AI per 45.36 kg seeds relative to untreated control. It counts as functional.
The test system of assay [16] is Ceutorhynchus obstrictus. As to the kind of experiment: Inhibition of Ceutorhynchus obstrictus development in canola pods of plant developed from compound treated seeds assessed as decrease in number of exit holes formed by larvae at 0.28 kg AI per 45.36 kg seeds. The format is functional.
In assay [17] the test system is Ceutorhynchus obstrictus. Nature of the assay: Inhibition of Ceutorhynchus obstrictus development in canola pods of plant developed from compound treated seeds assessed as decrease in number of exit holes formed by larvae at 0.45 kg AI per 45.36 kg seeds relative to untreated control. The format is functional.
Assay [18] concerns Ceutorhynchus obstrictus. As to the kind of experiment: Inhibition of Ceutorhynchus obstrictus development in canola pods of plant developed from compound treated seeds assessed as decrease in number of exit holes formed by larvae at 0.38 kg AI per 45.36 kg seeds relative to untreated control. The format is functional.
Assay [19] concerns Ceutorhynchus obstrictus. Nature of the assay: Inhibition of Ceutorhynchus obstrictus development in canola pods of plant developed from compound treated seeds assessed as decrease in number of exit holes formed by larvae at 0.30 kg AI per 45.36 kg seeds relative to untreated control. It counts as functional.
For assay [20], the system named is Ceutorhynchus obstrictus. As to the kind of experiment: Inhibition of Ceutorhynchus obstrictus development in canola pods of plant developed from compound treated seeds assessed as decrease in number of exit holes formed by larvae at 0.23 kg AI per 45.36 kg seeds relative to untreated control. The format is functional.
Assay [21] concerns Ceutorhynchus obstrictus. As to the kind of experiment: Inhibition of Ceutorhynchus obstrictus development in canola pods of plant developed from compound treated seeds assessed as decrease in number of exit holes formed by larvae at 0.45 kg AI per 45.36 kg seeds. The format is functional.
Assay [22] deals with Ceutorhynchus obstrictus. Nature of the assay: Inhibition of Ceutorhynchus obstrictus development in canola pods of plant developed from compound treated seeds assessed as decrease in number of exit holes formed by larvae at 0.38 kg AI per 45.36 kg seeds. The format is functional.
Assay [23] has as its system Ceutorhynchus obstrictus. As to the kind of experiment: Ratio of compound to imidacloprid for exit holes formed in Brassica napus L. Ryder pod by […] larvae of Ceutorhynchus obstrictus. The format is functional.
The test system of assay [24] is Ceutorhynchus obstrictus. As to the kind of experiment: Ratio of compound to clothianidin for exit holes formed in Brassica napus L. Ryder pods by Ceutorhynchus obstrictus larvae. It counts as functional.
In assay [25] the test system is Ceutorhynchus obstrictus. Nature of the assay: Inhibition of Ceutorhynchus obstrictus preimaginal development in Brassica napus L. Ryder pods of plant developed from compound treated seeds assessed as effect on number of first-instar larvae at 1351 g per 100 kg seeds by microscopic analysis. It counts as functional, organism-based.
Assay [26] has as its system Ceutorhynchus obstrictus. As to the kind of experiment: Effect on Ceutorhynchus obstrictus oviposition in Brassica napus L. Ryder pods of plant developed from compound treated seeds assessed as number of eggs deposited at 1351 g per 100 kg seeds by microscopic analysis. The format is functional, organism-based.

Turning to `CN/C(=N\[N+](=O)[O-])NCc1cnc(Cl)s1` [CLOTHIANIDINE], in the assay on Ceutorhynchus obstrictus [1], the “inhibition (INH)” value is 52.2%. Further, the inhibition entry with Ceutorhynchus obstrictus [2], in the assay with Ceutorhynchus obstrictus [3] and in the assay with Ceutorhynchus obstrictus [4] was “Active” in each case. Besides, in the assay with Contarinia nasturtii, the Activity is reported as 100%. Besides, the inhibition entry in the assay on Ceutorhynchus obstrictus [5] was “inactive”. In the assay with Ceutorhynchus obstrictus [6], the outcome was inactive.

Consider `O=[N+]([O-])/N=C1\NCCN1Cc1ccc(Cl)nc1` [IMIDACLOPRID], for which the “inhibition (INH)” value in the assay on Ceutorhynchus obstrictus [7] is on record as 96%; in the assay with Ceutorhynchus obstrictus [8], 88%; with Ceutorhynchus obstrictus [9] it was 39.4%; with Ceutorhynchus obstrictus [16], 100%; in the assay on Ceutorhynchus obstrictus [21], 100%; with Ceutorhynchus obstrictus [22], 98%. The inhibition entry in the assay with Ceutorhynchus obstrictus [10], in the assay on Ceutorhynchus obstrictus [11] and in the assay with Ceutorhynchus obstrictus [12] was “Active” each time. Besides, the inhibition entry with Ceutorhynchus obstrictus [13] was “inactive”. In addition, the outcome in the assay with Ceutorhynchus obstrictus [14] was inactive. Further, the Activity in the assay with Contarinia nasturtii is 100%. Further, the “fold change (FC)” value in the assay with Ceutorhynchus obstrictus [15] was determined as 2.2; in the assay on Ceutorhynchus obstrictus [17] it was 2.4; in the assay with Ceutorhynchus obstrictus [18], 2; in the assay with Ceutorhynchus obstrictus [19] it was 2.1; with Ceutorhynchus obstrictus [20] it was 1.9.

As to `Cl[C@H]1[C@H](Cl)[C@@H](Cl)[C@@H](Cl)[C@H](Cl)[C@H]1Cl` [LINDANE], the “fold change (FC)” value in the assay on Ceutorhynchus obstrictus [23] stood at 2; with Ceutorhynchus obstrictus [24] it was 2.5. Further, the inhibition result with Ceutorhynchus obstrictus [25] is “inactive”. The result in the assay on Ceutorhynchus obstrictus [26] was inactive.
